Values quoted from earlier work, collected in PubChem BioAssay AID1259409 (Chemical Carcinogenesis Research Information System (CCRIS), 2018).

System: rodent chemically induced tumor inhibition, incidence and multiplicity
Assay: CCRIS tumor inhibitor studies
Conditions: Carcinogen: 7,12-DIMETHYLBENZ[A]ANTHRACENE, 57-97-6, Route [Inhibitor]: SUBCUTANEOUS, Promoter: NONE USED

CC(C)C[C@H]1C(=O)N2CCC[C@H]2[C@]2(O)O[C@](NC(=O)[C@@H]3C=C4c5cccc6[nH]c(Br)c(c56)C[C@H]4N(C)C3)(C(C)C)C(=O)N12
tumour outcome (control, treated, inhibition, significance) (Dose [Inhibitor]: 0.1 MG 1/D FOR 81 D BEGINNING 30 D PRIOR TO FIRST CARCINOGEN DOSE TO 30 D POST LAST CARCINOGEN DOSE (STUDY DURATION: 31, Species: MOUSE, Strain/Sex: BALB/FEMALE, Target Tissue: Type of Lesion: MAMMARY GLAND: CARCINOMA, Dose [Carcinogen]: 1 MG IN SESAME OIL 1/WK FOR 4 WK): 8%, 8%, 0%, not significant | tumour outcome (control, treated, inhibition, significance) (Dose [Inhibitor]: 0.1 MG/30 G BW FOR 81 D BEGINNING 30 D POST LAST CARCINOGEN DOSE (STUDY DURATION: 27 WK), Species: MOUSE, Strain/Sex: BALB/FEMALE, Target Tissue: Type of Lesion: MAMMARY GLAND: CARCINOMA, Dose [Carcinogen]: 1 MG IN SESAME OIL 1/WK FOR 4 WK): 7%, 8%, -14%, not significant | tumour outcome (control, treated, inhibition, significance) (Dose [Inhibitor]: 0.4 MG/100 G BW 1/D FOR 50 D BEGINNING 30 D POST LAST CARCINOGEN DOSE (90 D TO 140 D OF AGE) (STUDY DURATION: 25 WK), Species: RAT, Strain/Sex: LEWIS/FEMALE, Target Tissue: Type of Lesion: MAMMARY GLAND: CARCINOMA, Dose [Carcinogen]: 10 MG IN SESAME OIL ONCE AT 56 D OF AGE AND ONCE AT 63 D OF AGE): 94%, 56%, 40%, p<0.005 | tumour outcome (control, treated, inhibition, significance) (Dose [Inhibitor]: 0.4 MG/100 G BW 1/D FOR 61 D BEGINNING 27 D PRIOR TO FIRST CARCINOGEN DOSE TO 27 D POST LAST CARCINOGEN DOSE (29 TO 90 D, Species: RAT, Strain/Sex: LEWIS/FEMALE, Target Tissue: Type of Lesion: MAMMARY GLAND: CARCINOMA, Dose [Carcinogen]: 10 MG IN SESAME OIL ONCE AT 56 D OF AGE AND ONCE AT 63 D OF AGE): 68%, 60%, 12%, not significant | tumour outcome (control, treated, inhibition, significance) (Dose [Inhibitor]: 0.4 MG/100 G BW 4/WK FOR 20 WK BEGINNING 12 D PRIOR TO FIRST CARCINOGEN DOSE (STUDY DURATION: 152 D), Species: RAT, Strain/Sex: LONG-EVANS/FEMALE, Target Tissue: Type of Lesion: HEMATOPOIETIC SYSTEM: LEUKEMIA (UNDIFFERENTIATED CELL), Dose [Carcinogen]: 10 MG IN SESAME OIL 1/2 WK FOR 12 WK (6 TOTAL DOSES)): 13/40 (33%), 15/41 (36%), -9%, not significant | tumour outcome (control, treated, inhibition, significance) (Dose [Inhibitor]: 0.4 MG/100 G BW 4/WK FOR 35 WK BEGINNING 12 D PRIOR TO FIRST CARCINOGEN DOSE (STUDY DURATION: 257 D), Species: RAT, Strain/Sex: LONG-EVANS/MALE, Target Tissue: Type of Lesion: HEMATOPOIETIC SYSTEM: LEUKEMIA (UNDIFFERENTIATED CELL), Dose [Carcinogen]: 10 MG IN SESAME OIL 1/2 WK FOR 12 WK (6 TOTAL DOSES)): 10/38 (26%), 8/38 (21%), 19%, not significant | tumour outcome (control, treated, inhibition, significance) (Dose [Inhibitor]: 0.4 MG/D FROM 26 TO 93 D OF AGE BEGINNING 30 D PRIOR TO FIRST CARCINOGEN DOSE (STUDY DURATION: 9 MO AFTER LAST DMBA TREA, Species: RAT, Strain/Sex: LEWIS/FEMALE, Target Tissue: Type of Lesion: MAMMARY GLAND: CARCINOMA, Dose [Carcinogen]: 10 MG TWICE ONCE AT 56 D AND ONCE AT 63 D OF AGE): 70%, 62%, 11%, not significant | tumour outcome (control, treated, inhibition, significance) (Dose [Inhibitor]: 0.4 MG/D FROM 30 TO 90 D OF AGE BEGINNING 30 D PRIOR TO CARCINOGEN DOSE (STUDY DURATION: 6 MO AFTER DMBA TREATMENT), Species: RAT, Strain/Sex: SPRAGUE-DAWLEY/FEMALE, Target Tissue: Type of Lesion: MAMMARY GLAND: CARCINOMA, Dose [Carcinogen]: 20 MG ONCE AT 60 D OF AGE): 96%, 82%, 15%, p<0.05 | tumour outcome (control, treated, inhibition, significance) (Dose [Inhibitor]: 0.4 MG/D FROM 30 TO 90 D OF AGE BEGINNING 30 D PRIOR TO CARCINOGEN DOSE (STUDY DURATION: 9 MO AFTER AMBA TREATMENT), Species: RAT, Strain/Sex: SPRAGUE-DAWLEY/FEMALE, Target Tissue: Type of Lesion: MAMMARY GLAND: CARCINOMA, Dose [Carcinogen]: 5 MG ONCE AT 60 D OF AGE): 82%, 60%, 27%, p<0.05 | tumour outcome (control, treated, inhibition, significance) (Dose [Inhibitor]: 0.4 MG/D FROM 30 TO 90 D OF AGE BEGINNING 30 D PRIOR TO CARCINOGEN DOSE (STUDY DURATION: 9 MO AFTER DMBA TREATMENT), Species: RAT, Strain/Sex: SPRAGUE-DAWLEY/FEMALE, Target Tissue: Type of Lesion: MAMMARY GLAND: FIBROADENOMA, Dose [Carcinogen]: 5 MG ONCE AT 60 D OF AGE): 25%, 15%, 40%, not significant | tumour outcome (control, treated, inhibition, significance) (Dose [Inhibitor]: 0.4 MG/D FROM 30 TO 90 D OF AGE BEGINNING 30 D PRIOR TO CARCINOGEN DOSE (STUDY DURATION: 9 MO AFTER LAST DMBA TREATMENT), Species: RAT, Strain/Sex: LONG-EVANS/FEMALE, Target Tissue: Type of Lesion: MAMMARY GLAND: CARCINOMA, Dose [Carcinogen]: 20 MG ONCE AT 60 D OF AGE): 25%, 22%, 12%, not significant | tumour outcome (control, treated, inhibition, significance) (Dose [Inhibitor]: 0.4 MG/D FROM 30 TO 90 D OF AGE BEGINNING 30 D PRIOR TO CARCINOGEN DOSE (STUDY DURATION: 9 MO AFTER LAST DMBA TREATMENT), Species: RAT, Strain/Sex: LONG-EVANS/FEMALE, Target Tissue: Type of Lesion: MAMMARY GLAND: FIBROADENOMA, Dose [Carcinogen]: 20 MG ONCE AT 60 D OF AGE): 12%, 3%, 75%, not significant | tumour outcome (control, treated, inhibition, significance) (Dose [Inhibitor]: 0.4 MG/D FROM 30 TO 90 D OF AGE BEGINNING 30 D PRIOR TO CARCINOGEN DOSE (STUDY DURATION: 12 MO AFTER DMBA TREATMENT), Species: RAT, Strain/Sex: SPRAGUE-DAWLEY/FEMALE, Target Tissue: Type of Lesion: MAMMARY GLAND: CARCINOMA, Dose [Carcinogen]: 1.25 MG ONCE AT 60 D OF AGE): 10%, 10%, 0%, not significant | tumour outcome (control, treated, inhibition, significance) (Dose [Inhibitor]: 0.4 MG/D FROM 30 TO 90 D OF AGE BEGINNING 30 D PRIOR TO CARCINOGEN DOSE (STUDY DURATION: 12 MO AFTER DMBA TREATMENT), Species: RAT, Strain/Sex: SPRAGUE-DAWLEY/FEMALE, Target Tissue: Type of Lesion: MAMMARY GLAND: FIBROADENOMA, Dose [Carcinogen]: 1.25 MG ONCE AT 60 D OF AGE): 90%, 80%, 11%, p<0.05
